How the values were obtained:
Format in all cases: in vivo
Spodoptera litura [1] = test: Diet incorporation method against Spodoptera litura (Example B); details: 96 h
Source text: (§1) In which E represents the expected percentage of inhibition of the pests for the combination of two insecticides or one insecticide and one fungicide at defined doses (for example equal to x and y respectively), x is the percentage of inhibition observed for the pest/disease by the compound (1) at a given dose (equal to x), y is the percentage of inhibition observed for the pest/disease by the compound (2) or (3) at a defined dose (equal to y). When the percentage of inhibition observed for the combination is greater than E, there is a synergistic effect.
The diet incorporation method was used, in which semi-synthetic diet was incorporated into the test solution consisting either of the single compound or respective compound combinations, when the temperature was approximately 50° C. in the bioassay containers, then stirred thoroughly for proper mixing and allowed to cool for 30 min. The solidified diet was cut into equal pieces, and then each piece was transferred into one cell of the bio-assay trays. A single starved third instar larva was released into each of these cells of the bio-assay trays and the tray was covered with a lid. The bio-assay trays were kept under laboratory conditions at a temperature of 25° C. and relative humidity of 70%. Observations on dead, moribund and live larvae were recorded 96 h after the release. Percent mortality was calculated by combining dead and moribund larvae and comparing the result with the one of the untreated control. The results are shown for the compound of formula (I-1) in Table B.

Helicoverpa armigera = test: Leaf dip method (tomato leaves), Bacillus thuringiensis mixture against Helicoverpa armigera (Example D); details: 0.1 ppm; 72 h
Source text: as §1
(§2) The leaf dip method was used, wherein the required quantity of the compounds were weighed and dissolved in a test solution prepared in tubes. The tubes were put on a vortex at 2000 rpm for 90 min for proper mixing and then, for the single compounds, diluted with a 0.01% Triton-X solution, for the combinations, diluted with a 0.01% Triton-X solution containing formulated Bt, to get the desired test concentrations. Tomato leaves were dipped in the solution for 10 seconds, shade dried for 20 min and then transferred to single cells of the bioassay trays. […] Observations on dead, moribund and live larvae were recorded at 72 h after the release. Percent mortality was calculated by combining dead and moribund larvae and comparing the result to the one of the untreated control. […]

Spodoptera litura [2] = test: Leaf dip method (tomato leaves), Bacillus thuringiensis mixture against Spodoptera litura (Example E); details: 0.1 ppm; 72 h
Source text: as §1
as §2, with “concentration.” for “concentrations.”, “results” for “result”

Alternaria solani = test: Preventive glasshouse test against Alternaria solani in tomato (Example G); details: preventive spray
Source text: as §1
(§3) The single compounds or respective compound combinations were dissolved in 2% dimethyl sulfoxide/acetone and then mixed with water containing emulsifier to a calibrated spray volume of 50 mL. The test solutions were poured into spray bottles for further applications.
To test the preventive activity, healthy young tomato plants, raised in the greenhouse, were sprayed with the active compound preparation at the stated application rates inside the spray cabinets using hollow cone nozzles. One day after treatment, the plants were inoculated with a spore suspension containing 0.24×10^6 Alternaria solani inoculum and 2% Malt. The inoculated plants were then kept in a greenhouse chamber at a temperature of 22-24° C. and 90-95% relative humidity for disease expression.
A visual assessment of the performance of the single compounds or compound combinations was carried out by rating the disease severity (0-100% scale) on treated plants 3, 7, 10 and 15 days after application. Efficacy (% control) of the single compounds and mixtures was calculated by comparing the disease rating in the treatment with the one of the untreated control. The compounds were also assessed for their plant compatibility by recording symptoms like necrosis, chlorosis and stunting. The results have been described for the compound of formula (I-1) in Table G.

Phakopsora pachyrhizi = test: Preventive glasshouse test against Phakopsora pachyrhizi in soybean (Example H); details: preventive spray
Source text: as §1
The single compounds or the respective compound combinations were dissolved in 2% dimethyl sulfoxide/acetone and then mixed with water containing an emulsifier to a calibrated spray volume of 50 ml. The test solutions were poured into spray bottles for further applications.
To test the preventive activity of compounds, healthy young Soybean plants, raised in the greenhouse, were sprayed with the active compound preparation at the stated application rates inside the spray cabinets using hollow cone nozzles. One day after treatment, the plants were inoculated with a suspension containing 2×10^5 Phakopsora pachyrhizi conidia. The inoculated plants were then kept in a greenhouse chamber at a temperature of 22-24° C. and 80-90% relative humidity for disease expression.
A visual assessment of the performance of the single compounds and respective compound combinations was carried out by rating the disease severity (0-100% scale) on treated plants 3, 7, 10 and 15 days after application. Efficacy (% control) of the compounds was calculated by comparing the disease rating in the treatment with the one of the untreated control. The compounds were also assessed for their plant compatibility by recording symptoms like necrosis, chlorosis and stunting. The results have been described for the compound of formula (I-1) in Table H.

Pyricularia oryzae = details: 500 ppm; preventive spray, rice
[3] = test system: Parastagonospora nodorum/Septoria nodorum/Stagnospora nodorum; test: Preventive glasshouse test against Septoria nodorum in wheat (Example J); details: 500 ppm, preventive spray
Source text: as §1, §3
[…] One day after treatment, the plants were inoculated with a spore suspension containing 2.8×10^6 Stagnospora nodorum inoculum.
The inoculated plants were then kept in a greenhouse chamber at 22-25° C. temperature and 90-100% relative humidity for disease expression.
A visual assessment of the performance of the single compounds or compound combinations was carried out by rating the disease severity (0-100% scale) on treated plants 3, 7, 10 and 15 days after application. Efficacy (% control) of the single compounds and mixtures was calculated by comparing the disease rating in the treatment with the one of the untreated control. The compounds were also assessed for their plant compatibility by recording symptoms like necrosis, chlorosis and stunting. The results have been described for the compound of formula (I-1) in Table J.

Question: How did the pest or weed control at 0.32 ppm (Spodoptera litura [1]; read-out: Observed Efficacy (%), 0.32 ppm) turn out when `Cc1cc(Cl)cc(C(=O)NC(C)(C)C)c1NC(=O)c1cc(OC2CS(=O)(=O)C2)nn1-c1ncccc1Cl` [Compound (I-1), N-(2-(tert-butylcarbamoyl)-4-chloro-6-methylphenyl)-1-(3-chloropyridin-2-yl)-3-((1,1-dioxidothietan-3-yl)oxy)-1H-pyrazole-5-carboxamide] was run?
Answer: Its pest or weed control at 0.32 ppm is 37.5%.

Question: What about the pest or weed control at 1 ppm (Spodoptera litura [1]; read-out: Observed Efficacy (%), 1 ppm) of the same compound?
Answer: The pest or weed control at 1 ppm was 25%.

Question: And the “Observed Efficacy (%)” value (Helicoverpa armigera)?
Answer: Its value is 12.5%.

Question: And the “Observed Efficacy (%)” value (Spodoptera litura [2])?
Answer: The value was 0%.

Question: And the “Observed Efficacy (%)” value (Alternaria solani; 100 ppm)?
Answer: The value was 14%.

Question: And the “Observed Efficacy (%)” value (Alternaria solani; 500 ppm)?
Answer: Its value is 16%.

Question: What about the “Observed Efficacy (%)” value (Phakopsora pachyrhizi; 100 ppm) of the same compound?
Answer: The value was 44%.

Question: What about the “Observed Efficacy (%)” value (Phakopsora pachyrhizi; 500 ppm) of the same compound?
Answer: Its value is 47%.

Question: And the “Observed Efficacy (%)” value (Pyricularia oryzae)?
Answer: Its value is 38%.

Question: What about the “Observed Efficacy (%)” value [3] of the same compound?
Answer: Its value is 37%.

Source: patent US20230276803A1, “A PESTICIDALLY ACTIVE MIXTURE COMPRISING THIETANYLOXY COMPOUND, OXIDES OR SALTS THEREOF” (PI INDUSTRIES LTD., priority 2020, published 2023)
